Test results as given in PMC6177439, “Peptide-oligonucleotide conjugates exhibiting pyrimidine-X cleavage specificity efficiently silence miRNA target acting synergistically with RNase H” (Scientific Reports, 2018).

Tests used:
miR-21 [1] = assay: RNA cleavage assay, miR-21; assay type: biochemical; settings: miR-21 1 µM, conjugate 100 µM, 37 °C, 0-144 h
Description: (§1) The reaction mixture (5 µl) contained 10^5 cpm (Cherenkov’s counting) of [^32P]-RNA, 1 μM unlabeled RNA, and one of the conjugates at a concentration ranging from 1 to 100 μM, 50 mM Tris-HCl, pH 7.0, 0.2 M KCl, and 1 mM EDTA. […] To identify cleavage sites, imidazole and T1-ladders produced by partial RNA cleavage with 2 M imidazole buffer (pH 7.0)[41] and with RNase T1[42], respectively, were run in parallel. To obtain quantitative data, gels were dried and analyzed using Molecular Imager FX (Bio-Rad, USA). The total extent of RNA cleavage and the extent of RNA cleavage at each individual site were determined with Quantity One software.

miR-21^hybrid = assay: RNA cleavage assay, miR-21^hybrid; assay type: biochemical; settings: RNA 1 µM, conjugate 20 µM, 37 °C, 24 h time point
Description: as §1

miR-21 [2] = assay: Gel-retardation assay, hybridization with miR-21; assay type: binding; settings: at equimolar concentration and higher; miR-21 1 µM, 0.5-10 µM oligonucleotide or conjugate, 37 °C, 1 h, 50 mM Tris-HCl pH 7.0, 0.2 M KCl, 1 mM EDTA, 15% native PAAG
Description: The samples were loaded onto the running gel immediately after quenching the reaction with an interval of 1 min. […] To obtain quantitative data, gels were dried and analyzed using Molecular Imager FX (Bio-Rad, USA). The extent of binding of oligonucleotide to miR-21 was determined using Quantity One software as a ratio of radioactivity measured in the complex to the total radioactivity applied onto the gel lane.

miR-17 [3] = assay: RNA cleavage assay, miR-17; assay type: biochemical; settings: miR-17 1 µM, conjugate 20 µM, 37 °C, 24 h
Description: as §1

melanoma B16 cells = assay: xCELLigence real-time analysis of cell proliferation; assay type: cell-based, murine; settings: 1 µM with Lipofectamine 2000, 120 h; for cell index: untreated control cell index 5
Description: Proliferation experiments were performed using an xCELLigence real-time cell analysis (RTCA) system (ACEABiosciences, USA) in an atmosphere of 5% CO2 at 37 °C. B16 melanoma cells were seeded at a concentration of 5 × 10^3 cells per well of 16-well E-Plates. The following day, the cells were transfected with conjugate 4, control conjugate 7 or oligonucleotide 4 at 1 µM concentration using Lipofectamine™ 2000 (Invitrogen, USA). In 4 h after transfection, the medium in the wells was replaced with DMEM medium containing 10% of FBS and 1% of antibiotics antimycotic solution. Cell proliferation experiments were run for 120 h and Cell Index was monitored every 30 min for the whole experiment duration. Four replications of each cell densities were used in the cell proliferation experiment.

miR-17 [4] = assay: miR-17 level in B16 cells by stem-loop qPCR; assay type: cell-based, murine; settings: for decrease in the miR-17 level: 24 h after transfection with Lipofectamine 2000, 0.5 and 1 µM, normalized to U6, mean of three independent experiments
Description: Murine B16 melanoma cells (1.5–1 × 10^5 per well of 24-well plate) were pre-seeded in DMEM containing 10% FBS a day before transfection and were incubated at 37 °C in a humidified atmosphere with 5% CO2. Before the transfection, the medium was replaced by serum-free and antibiotic-free DMEM, and cells were incubated for 4 h with 0.05–1 µM of conjugate 4 precomplexed with Lipofectamine 2000 (Invitrogen, USA) in Opti-MEM medium according to manufacturer’s instructions. Then, the medium was replaced by culture medium containing 10% FBS and 1% antibiotic antimycotic solution ([…] streptomycin, 10000 IU/mL penicillin, and 25 µg/mL amphotericin), and the cells were cultivated for 24 h under the same conditions. After 24 h, total RNA was isolated from the cells using TRIzol Reagent (Invitrogen, USA) according to the manufacturer’s protocol.
Expression of miR-17, miR-21, miR-18a and let-7g in B16 cells was analyzed using stem-loop PCR technology[43],[44]. cDNA synthesis was carried out using SuperScript III reverse transcriptase (SSIII RT, Invitrogen, USA) as previously described. The RT and PCR primers used in the study are presented in Table S1 (Supplementary information). PCR amplification was carried out in a total volume of 20 µl, using Maxima Hot Start Taq DNA polymerase (Thermo Scientific, USA), 1 × PCR Buffer, 1.5 mM MgCl2, 0.2 mM dNTPs, 1 × EvaGreen (Biotium, Hayward, USA), and […] of PCR sense and antisense primers. The reaction was performed with initial preheating at 94 °C for 4 min and 40 cycles of 94 °C for 40 s, 61 °C for 30 s, and 72 °C for 30 s, followed by melting point determination. The obtained PCR data were analyzed using standard Bio-Rad iQ5 v.2.0 software. For each sample, the threshold cycle (Ct) was determined. Quantitative assessment of the level of transcripts representation and relative miRNA expression was performed by comparing the Ct values for miR-17 and a reference U6.

let 7-g = assay: Off-target let-7g level in B16 cells by stem-loop qPCR; assay type: cell-based, murine; settings: 1 µM, 24 h, Lipofectamine 2000, normalized to U6
miR-21 [5] = assay: Off-target miR-21 level in B16 cells by stem-loop qPCR; assay type: cell-based, murine; settings: 1 µM, 24 h, Lipofectamine 2000, normalized to U6
miR-18a = assay: Off-target miR-18a level in B16 cells by stem-loop qPCR; assay type: cell-based, murine; settings: 1 µM, 24 h, Lipofectamine 2000, normalized to U6
E2F1 = assay: Western blot of miR-17 protein target E2F1 in B16 cells; assay type: cell-based, murine; settings: 1 µM, 72 h after transfection, GAPDH internal control
Description: Cell lysates were separated in 12.5% SDS-PAGE and transferred to a PVDF membrane using a semi-dry transfer. The membranes were blocked for 1 h in 3% nonfat dried milk in TBST (20 mM Tris- HCl, pH 7.6,137mMNaCl, 0.1% Tween), and incubated with primary antibodies against E2F1 (ab179445, Abcam, UK, 1:500) and reference protein GAPDH (ab9485, Abcam, UK, 1:1000) at +4 °C for night. After three washes with TBST, membranes were incubated with secondary HRP-conjugated goat anti-rabbit antibodies (ab6721, Abcam, UK) at room temperature for 1 h. After three washes with TBST luminescence detection was performed by Versadoc 4000 MP (Bio-Rad, USA) using Chemiluminescent reagent kit (Abcam, USA). Data were analyzed using GelPro 4.0 software (Media Cybernetics, USA).

miR-17 [6] = assay: Cleavage of duplexes miR-17/ON and miR-17/conjugate by RNase H; assay type: biochemical; settings: miR-17 10 µM, conjugate 5 µM, 37 °C
Description: The reaction mixture (10 µl) contained 10^5 cpm (Cherenkov’s counting) of [^32P]-miR-17, 10 µM unlabeled miR-17, oligonucleotide 4 or conjugate 4 at a concentration of 5 µM, 50 mM Tris-HCl, pH 7.0, 0.2 M KCl, and 1 mM EDTA was incubated at 37 °C for 20 min. Then, RNase H (Thermo Scientific, USA) was added to the reaction mixture to a final concentration 100 U/ml and incubated at 37 °C. At different time points, 30 min and 1, 2, 4, 8, and 24 h, an aliquot was taken and the reaction was quenched by precipitation of RNA with 2% LiClO4 in acetone. RNA cleavage products were analyzed by electrophoresis in denaturing gel as described above.

[7] = test system: 96 nts fragment of HIV-1 RNA; set-up: method as in PMID 15047859, PMID 16615805; settings: non-complementary RNA substrates; cited from earlier work

NH2—Gly(ArgLeu)4—P—TCAA—(DEG)2—AGT CTG ATA AGC TA [conjugate 1, peptide-oligonucleotide conjugate (miRNase) targeted to miR-21, linear 14 nt oligonucleotide, double DEG linker]
cleavage efficiency of miR-21 at a 100-fold excess of conjugate (miR-21 [1]): 50% | total extent of miR-21^hybrid cleavage at a 20-fold excess of conjugates (miR-21^hybrid): 55% | hybridization (binding) efficiency with miR-21 (miR-21 [2]): 25%

NH2—Gly(ArgLeu)4—P—TCAA—(DEG)2—CTGTAAGCACTTTGGTCAGCGAAAGCTGAC [conjugate 4]
cleavage of miR-17 at a 20-fold excess of conjugate (miR-17 [3]): 9% | cell index (melanoma B16 cells): 1 | fold decrease of growth rate / inhibition of cell proliferation (melanoma B16 cells; versus untreated cells): 5 fold | advantage in inhibition efficiency in comparison with antisense oligonucleotide 4 (miR-17 [4]): 2 fold | decrease in the miR-17 level (miR-17 [4]): 80% | lowest concentration with statistically significant reduction of miR-17 level (miR-17 [4]; 24 h after transfection, range 0.05-1 µM): 0.1 µM | expression level of let 7-g versus controls (let 7-g): no statistically significant differences | expression level of miR-21 versus controls (miR-21 [5]): no statistically significant differences | expression level of miR-18a versus controls (miR-18a): no statistically significant differences | increase of the level of E2F1 protein as compared with control (E2F1): 2.2 fold | increase of conjugate activity (miR-17 cleavage at conjugate sites) in the presence of RNase H (miR-17 [6]; RNase H 100 U/ml): 11 fold | miR-17 cleavage at RNase H sites during the first 2 h, with RNase H (miR-17 [6]; RNase H 100 U/ml, 2 h): 45% | miR-17 cleavage at sites C17-A18 and U21-A22 after 4 h, with RNase H (miR-17 [6]; RNase H 100 U/ml, 4 h): 47% | miR-17 destroyed after 8 h, with RNase H (miR-17 [6]; RNase H 100 U/ml, 8 h): 95% | miR-17 cleavage by conjugate alone under two-fold excess of RNA (miR-17 [6]; no RNase H, 24 h): 9%

NH2—Gly(ArgLeu)4—P—TCAA—(DEG)—CTGTAAGCACTTTGGTCAGCGAAAGCTGAC [conjugate 5, miRNase targeted to miR-17, as conjugate 4 with single DEG linker]
cleavage of miR-17 at a 20-fold excess of conjugate (miR-17 [3]): 3%

NH2—Gly(ArgLeu)4—P—TCAA—(DEG)2—TCTGATAAGCTACGTAGCGAAAGCTACG [conjugate 2]
cleavage efficiency of miR-21 at a 100-fold excess of conjugate (miR-21 [1]): 50% | total extent of miR-21^hybrid cleavage at a 20-fold excess of conjugates (miR-21^hybrid): 85% | hybridization (binding) efficiency with miR-21 (miR-21 [2]): 48%

NH2—Gly(ArgLeu)4—P—TCAA—(TrEG)2—CGATAAATAACGCGCAAGTCAGCGAAAGCTGACTTG [conjugate 7, control conjugate addressed to luciferase mRNA]
cell index (melanoma B16 cells): 3.2 | decrease in the miR-17 level (miR-17 [4]): does not evoke any statistically significant reduction | increase of the level of E2F1 protein as compared with control (E2F1): no statistically significant change

NH2-Gly(ArgLeu)4-TCAA [short peptide-oligonucleotide conjugate, small chemical ribonuclease used as catalytic construction]
cleavage specificity [7]: Pyr-A cleavage specificity

NH2—Gly(ArgLeu)4—P— (DEG)2—CTGTAAGCACTTTGGTCAGCGAAAGCTGAC [conjugate 6]
cleavage of miR-17 at a 20-fold excess of conjugate (miR-17 [3]): complete loss of ribonuclease activity
